Laboratory results: US20250034197A1, “NUCLEOSIDE-DIPHOSPHATE-HEPTOSE COMPOUNDS FOR TREATING CONDITIONS ASSOCIATED WITH ALPK1 ACTIVITY” (PYROTECH (BEIJING) BIOTECHNOLOGY CO., LTD., priority 2021, published 2025)
Where two headings read alike, the source gives them in different places.

Experiments:
ALPK1 [1] = target: T1, ALPK1 (Homo sapiens, UniProt Q96QP1); experiment: NF-κB luciferase reporter assay in 293T cells (cellular assay); type: cell-based
T1 construct: endogenous in cells; host or cells: 293T cells
T1 sequence (Q96QP1 whole entry): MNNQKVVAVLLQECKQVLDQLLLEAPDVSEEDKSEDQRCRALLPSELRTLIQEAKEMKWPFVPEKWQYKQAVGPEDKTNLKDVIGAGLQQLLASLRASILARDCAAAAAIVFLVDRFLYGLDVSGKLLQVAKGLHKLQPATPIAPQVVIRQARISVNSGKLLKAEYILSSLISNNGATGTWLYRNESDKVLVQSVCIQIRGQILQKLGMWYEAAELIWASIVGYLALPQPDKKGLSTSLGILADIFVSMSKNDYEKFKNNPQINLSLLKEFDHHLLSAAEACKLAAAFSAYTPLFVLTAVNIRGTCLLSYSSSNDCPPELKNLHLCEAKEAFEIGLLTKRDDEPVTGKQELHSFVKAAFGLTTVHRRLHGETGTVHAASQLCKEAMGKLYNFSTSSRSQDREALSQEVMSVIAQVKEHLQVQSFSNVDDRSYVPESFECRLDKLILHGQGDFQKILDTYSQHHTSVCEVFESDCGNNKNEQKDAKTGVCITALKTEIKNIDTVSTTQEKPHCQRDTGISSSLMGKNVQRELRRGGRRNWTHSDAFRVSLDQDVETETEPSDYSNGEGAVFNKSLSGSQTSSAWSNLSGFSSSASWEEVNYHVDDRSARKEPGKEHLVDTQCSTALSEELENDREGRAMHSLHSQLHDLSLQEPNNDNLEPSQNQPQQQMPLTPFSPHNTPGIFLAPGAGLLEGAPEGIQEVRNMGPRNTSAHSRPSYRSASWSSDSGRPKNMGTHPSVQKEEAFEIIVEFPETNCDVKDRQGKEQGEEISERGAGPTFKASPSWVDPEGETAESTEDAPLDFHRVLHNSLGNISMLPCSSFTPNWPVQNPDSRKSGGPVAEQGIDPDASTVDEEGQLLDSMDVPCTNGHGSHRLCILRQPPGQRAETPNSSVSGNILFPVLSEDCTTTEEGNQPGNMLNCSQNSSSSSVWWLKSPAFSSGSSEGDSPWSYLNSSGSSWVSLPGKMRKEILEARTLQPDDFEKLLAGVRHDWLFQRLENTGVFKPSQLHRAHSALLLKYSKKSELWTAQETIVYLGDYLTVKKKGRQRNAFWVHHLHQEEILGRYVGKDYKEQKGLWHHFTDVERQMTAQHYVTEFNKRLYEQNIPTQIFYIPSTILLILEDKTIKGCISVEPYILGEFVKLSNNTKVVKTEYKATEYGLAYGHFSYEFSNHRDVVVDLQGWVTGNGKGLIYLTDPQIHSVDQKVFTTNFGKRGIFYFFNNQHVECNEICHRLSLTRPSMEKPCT
Protocol: The compounds disclosed herein activate NF-κB through ALPK1-TIFA axis as determined by the NF-κB luciferase reporter and TIFA phosphorylation. For NF-κB luciferase assay, the plasmids (pNL2.2-BII-5RE-Luc), and control vector (pRL-TK) were transfected into 293T cells with the Jetprime reagents (Polyplus). NF-κB luciferase activity was determined using the dual luciferase assay kit (Promega) according to the manufacturer's instructions. TIFA phosphorylation upon the treatment with the compounds disclosed herein described in Table 1, were assayed with immunoblotting. Briefly, for the immunoblotting assay, the 293T cells were seeded in 12-well-plates and cultured for 16 h, and treated with indicated compounds for another 2 hours. Subsequently, the cells were collected and sampled as the regular western-blotting method, immunoblotted by the TIFA phosphorylation specific antibody (ab214815, Abcam).
The EC50 of the compounds disclosed herein were determined by the NF-κB luciferase reporter assay using 293T cells described supra. Compounds with indicated concentrations were added to the culture medium of 293T and the NF-κB luciferase activity was determined using the dual luciferase assay kit (Promega) according to the manufacturer's instructions. […] These chemical entities induce strong activation of the immune regulator NF-κB.

ALPK1 [2] = target: T1, ALPK1; experiment: Enzymatic assay of ALPK1 activation; type: biochemical
[3] = PK / tissue distribution in Sprague-Dawley rats; type: in vivo; conditions: female, rat; for Cmax: PO, 5 mg/kg; for clearance: IV 1 mg/kg, read-out: CL post IV Dosing @1 mg/kg; for half-life: PO 5 mg/kg, read-out: T1/2 post PO Dosing @5 mg/kg (converted)
Protocol: Tissue distribution study of the compounds disclosed herein were conducted in SD rats and mice to assess their liver-targeting properties. The compounds disclosed herein were orally administered to SD rats and mice, and the concentration of the compound and its metabolites were tested in plasma and liver at different time points.
The pharmacokinetics of the compounds disclosed herein were evaluated in female Sprague-Dawley rats after administration via oral gavage and intravenous bolus (IV) injection. The test compound was dissolved in 0.5% methylcellulose for oral gavage and in 30% HP-β-CD for IV injection. The animals used for oral administration were fasted overnight prior to dosing and fed normal daily feed at 4 hours post-dose, but the animals used for IV dosing had free access to food during the study. Plasma samples were collected at pre-dose, 0.033 (IV only), 0.083, 0.25, 0.5, 1, 2, 4, 7 and 24 hours post-dose. Liver samples were collected at 1, 3 and 6 hours post-dose. The samples were analyzed by LC/MS/MS and the concentrations of test compound and its metabolites at each time point were determined. Pharmacokinetic parameters were calculated from the plasma concentrations using Pheonix WinNonlin.
Particularly, preferable compounds have a ratio for liver concentration to plasma concentration of greater than 2, more preferable compounds have a ratio for liver concentration to plasma concentration of greater than 5, and most preferable compounds have a ratio for liver concentration to plasma concentration of greater than 10. The PK properties and tissue exposure of representative compounds and control compound ADPS-Heptose in Rats are given below.

[4] = plasma, read-out: Cmax in Plasma

SMILES | EC50 (ALPK1 [1]) [nM] | EC50 (ALPK1 [2]) [nM] | Cmax ([3]; liver, read-out: Cmax in Liver) [ng/g] | Cmax [3, 4] [ng/mL] | clearance ([3]; plasma) [mL/min/kg] | half-life ([3]; plasma) [min]
C=C[C@@]1(O)[C@H](O)[C@@H](CO[P@](=O)(S)OP(=O)(O)OC2OC([C@@H](O)CO)C(O)C(O)C2O)O[C@H]1n1cnc2c(N)ncnc21 (single isomer, unassigned) [Example 31Q] | 7.01 | 11 |  |  |  | 
C=C[C@@]1(O)[C@H](O)[C@@H](CO[P@@](=O)(S)OP(=O)(O)OC2OC([C@@H](O)CO)C(O)C(O)C2O)O[C@H]1n1cnc2c(N)ncnc21 (single isomer, unassigned) [Example 31R] | 13.6 | 12 |  |  |  | 
C=C[C@@]1(F)[C@H](O)[C@@H](COP(=O)(S)OP(=O)(O)OC2OC([C@@H](O)CO)C(O)C(O)C2O)O[C@H]1n1cnc2c(N)ncnc21 (single isomer, unassigned) [Example 41D] | 5.71 | 4.1 |  |  |  | 
C#C[C@@]1(F)[C@H](O)[C@@H](COP(=O)(S)OP(=O)(O)OC2OC([C@@H](O)CO)C(O)C(O)C2O)O[C@H]1n1cnc2c(N)ncnc21 (stereo partly drawn) [Example 21D] | 4.08 | 26 |  |  |  | 
C#C[C@@]1(F)[C@H](O)[C@@H](COP(=O)(S)OP(=O)(O)OC2OC([C@@H](O)CO)C(O)C(O)C2O)O[C@H]1n1ccc(=O)[nH]c1=O (stereo partly drawn) [Example 22D] | 5.66 | 64 |  |  |  | 
C#C[C@@]1(O)[C@H](O)[C@@H](COP(=O)(S)OP(=O)(O)OC2OC([C@@H](O)CO)C(O)C(O)C2O)O[C@H]1n1cnc2c(N)ncnc21 (stereo partly drawn) [Example 25D] | 8.41 | 17 |  |  |  | 
C=C[C@@]1(O)[C@H](O)[C@@H](COP(=O)(S)OP(=O)(O)OC2OC([C@H](COC(C)=O)OC(C)=O)C(OC(C)=O)C(OC(C)=O)C2OC(C)=O)O[C@H]1n1cnc2c(N)ncnc21 (stereo partly drawn) [Example 31C] | 16.9 |  | 30.5 | < 1 | 14.6 | 104
C=C[C@@]1(O)[C@H](O)[C@@H](COP(=O)(S)OP(=O)(O)OC2OC([C@@H](O)CO)C(O)C(O)C2O)O[C@H]1n1cnc2c(N)ncnc21 (stereo partly drawn) [Example 31D] | 16 | 24 |  |  |  | 
CC(=O)OC[C@H](OC(C)=O)C1OC(OP(=O)(O)OP(=O)(S)OC[C@H]2O[C@@H](n3cnc4c(N)ncnc43)[C@H](N(C)C)[C@@H]2O)C(OC(C)=O)C(OC(C)=O)C1OC(C)=O (stereo partly drawn) [Example 35C] | 18.9 |  | 1330 | 75.5 | 7.67 | 27
C=C[C@@]1(F)[C@H](O)[C@@H](COP(=O)(S)OP(=O)(O)OC2OC([C@H](COC(C)=O)OC(C)=O)C(OC(C)=O)C(OC(C)=O)C2OC(C)=O)O[C@H]1n1cnc2c(N)ncnc21 (stereo partly drawn) [Example 41C] | 8.31 |  | 18.7 | < 1 | 9.76 | 51
C=C[C@@]1(F)[C@H](O)[C@@H](COP(=O)(S)OP(=O)(O)OC2OC([C@H](COC(C)=O)OC(C)=O)C(OC(C)=O)C(OC(C)=O)C2OC(C)=O)O[C@H]1n1ccc(=O)[nH]c1=O (stereo partly drawn) [Example 42C] | 7.57 |  | 31.7 | 2.4 | 18.6 | 37.8
C=C[C@@]1(F)[C@H](O)[C@@H](COP(=O)(S)OP(=O)(O)OC2OC([C@@H](O)CO)C(O)C(O)C2O)O[C@H]1n1ccc(=O)[nH]c1=O (stereo partly drawn) [Example 42D] | 14 | 11 |  |  |  | 
C=C[C@@]1(O)[C@H](O)[C@@H](COP(=O)(S)OP(=O)(O)OC2OC([C@H](COC(C)=O)OC(C)=O)C(OC(C)=O)C(OC(C)=O)C2OC(C)=O)O[C@H]1n1ccc(=O)[nH]c1=O (stereo partly drawn) [Example 43C] | 20.7 |  | 22.4 | < 1 | 8.25 | 140
C=C[C@@]1(O)[C@H](O)[C@@H](COP(=O)(S)OP(=O)(O)OC2OC([C@@H](O)CO)C(O)C(O)C2O)O[C@H]1n1ccc(=O)[nH]c1=O (stereo partly drawn) [Example 43D] | 18.3 | 48 |  |  |  | 
C=C[C@@]1(O)[C@H](O)[C@@H](COP(=O)(S)OP(=O)(O)OC2OC([C@H](COC(C)=O)OC(C)=O)C(OC(C)=O)C(OC(C)=O)C2OC(C)=O)O[C@H]1c1cnc2c(N)ncnn12 (stereo partly drawn) [Example 127C] | 2.94 |  | 48.5 | 0.4 | 17.6 | 38.4
CS[C@@H]1[C@H](O)[C@@H](COP(=O)(S)OP(=O)(O)OC2OC([C@H](COC(C)=O)OC(C)=O)C(OC(C)=O)C(OC(C)=O)C2OC(C)=O)O[C@H]1n1ccc(=O)[nH]c1=O (stereo partly drawn) [Example 262C] | 36.3 |  |  |  |  | 
CS[C@@H]1[C@H](O)[C@@H](COP(=O)(S)OP(=O)(O)OC2OC([C@@H](O)CO)C(O)C(O)C2O)O[C@H]1n1ccc(=O)[nH]c1=O (stereo partly drawn) [Example 262D] | 101 |  |  |  |  | 
C#C[C@@]1(O)[C@H](O)[C@@H](COP(=O)(S)OP(=O)(O)OC2OC([C@H](COC(C)=O)OC(C)=O)C(OC(C)=O)C(OC(C)=O)C2OC(C)=O)O[C@H]1c1csc2c(N)ncnc12 (stereo partly drawn) [Example 264C] | 48.3 |  |  |  |  | 
C=C[C@@]1(O)[C@H](O)[C@@H](COP(=O)(S)OP(=O)(O)OC2OC([C@H](COC(C)=O)OC(C)=O)C(OC(C)=O)C(OC(C)=O)C2OC(C)=O)O[C@H]1c1csc2c(N)ncnc12 (stereo partly drawn) [Example 265C] | 45.4 |  |  |  |  | 
C=C[C@@]1(O)[C@H](O)[C@@H](COP(=O)(S)OP(=O)(O)OC2OC([C@@H](OC(C)=O)C(COC(C)=O)OC(C)=O)C(OC(C)=O)C(OC(C)=O)C2OC(C)=O)O[C@H]1n1cnc2c(N)ncnc21 (stereo partly drawn) [Example 321C] | > 1000 |  |  |  |  | 
CO[C@@H]1[C@H](O)[C@@H](COP(=O)(S)OP(=O)(O)OC2OC([C@H](COC(C)=O)OC(C)=O)C(OC(C)=O)C(OC(C)=O)C2OC(C)=O)O[C@H]1c1cnc2c(N)ncnn12 (stereo partly drawn) [Example 322C] | 6.76 |  |  |  |  | 
